Measured values reported in PMC4252478 (Biochemical pharmacology, 2014).
Changes are numbered by the printed parent chain. Each block holds one molecule with its values, some of them ahead of it.

Assays:
[1] = target: T1, hPXR (Homo sapiens, UniProt O75469); conditions: HEK293T cells, 24 h; for PXR activation in the screen: 28 μM
T1 sequence (O75469 1-434): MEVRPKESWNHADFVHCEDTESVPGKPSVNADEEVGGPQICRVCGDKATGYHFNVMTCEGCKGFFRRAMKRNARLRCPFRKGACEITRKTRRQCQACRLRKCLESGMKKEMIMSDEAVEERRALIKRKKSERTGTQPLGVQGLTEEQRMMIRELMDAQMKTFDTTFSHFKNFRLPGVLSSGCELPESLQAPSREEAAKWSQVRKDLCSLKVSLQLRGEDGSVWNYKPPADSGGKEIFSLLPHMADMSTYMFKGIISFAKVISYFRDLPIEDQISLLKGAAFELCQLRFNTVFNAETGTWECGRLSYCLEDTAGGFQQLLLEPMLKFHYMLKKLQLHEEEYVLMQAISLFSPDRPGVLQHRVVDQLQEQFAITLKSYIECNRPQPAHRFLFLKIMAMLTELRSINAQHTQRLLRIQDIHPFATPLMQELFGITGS

[2] = target: T1, hPXR; assay: CYP3A4 promoter luciferase reporter assay in HepG2 cells; conditions: HepG2, LS180 and LS174T cells, 24 h
[3] = system: HepG2, LS180, and LS174T cells; assay: Cell viability assay; assay type: cell-based, human; conditions: 1.7 nM to 56 μM
[4] = target: hPXR and SRC-1 interaction (Homo sapiens, UniProt O75469); assay: Mammalian two-hybrid assay in HepG2 cells; assay type: cell-based; conditions: 24 h, 5 μM rifampicin, 5, 10 or 20 μM MET
Chain of hPXR and SRC-1 interaction (Q15788 whole entry partner, one chain of several): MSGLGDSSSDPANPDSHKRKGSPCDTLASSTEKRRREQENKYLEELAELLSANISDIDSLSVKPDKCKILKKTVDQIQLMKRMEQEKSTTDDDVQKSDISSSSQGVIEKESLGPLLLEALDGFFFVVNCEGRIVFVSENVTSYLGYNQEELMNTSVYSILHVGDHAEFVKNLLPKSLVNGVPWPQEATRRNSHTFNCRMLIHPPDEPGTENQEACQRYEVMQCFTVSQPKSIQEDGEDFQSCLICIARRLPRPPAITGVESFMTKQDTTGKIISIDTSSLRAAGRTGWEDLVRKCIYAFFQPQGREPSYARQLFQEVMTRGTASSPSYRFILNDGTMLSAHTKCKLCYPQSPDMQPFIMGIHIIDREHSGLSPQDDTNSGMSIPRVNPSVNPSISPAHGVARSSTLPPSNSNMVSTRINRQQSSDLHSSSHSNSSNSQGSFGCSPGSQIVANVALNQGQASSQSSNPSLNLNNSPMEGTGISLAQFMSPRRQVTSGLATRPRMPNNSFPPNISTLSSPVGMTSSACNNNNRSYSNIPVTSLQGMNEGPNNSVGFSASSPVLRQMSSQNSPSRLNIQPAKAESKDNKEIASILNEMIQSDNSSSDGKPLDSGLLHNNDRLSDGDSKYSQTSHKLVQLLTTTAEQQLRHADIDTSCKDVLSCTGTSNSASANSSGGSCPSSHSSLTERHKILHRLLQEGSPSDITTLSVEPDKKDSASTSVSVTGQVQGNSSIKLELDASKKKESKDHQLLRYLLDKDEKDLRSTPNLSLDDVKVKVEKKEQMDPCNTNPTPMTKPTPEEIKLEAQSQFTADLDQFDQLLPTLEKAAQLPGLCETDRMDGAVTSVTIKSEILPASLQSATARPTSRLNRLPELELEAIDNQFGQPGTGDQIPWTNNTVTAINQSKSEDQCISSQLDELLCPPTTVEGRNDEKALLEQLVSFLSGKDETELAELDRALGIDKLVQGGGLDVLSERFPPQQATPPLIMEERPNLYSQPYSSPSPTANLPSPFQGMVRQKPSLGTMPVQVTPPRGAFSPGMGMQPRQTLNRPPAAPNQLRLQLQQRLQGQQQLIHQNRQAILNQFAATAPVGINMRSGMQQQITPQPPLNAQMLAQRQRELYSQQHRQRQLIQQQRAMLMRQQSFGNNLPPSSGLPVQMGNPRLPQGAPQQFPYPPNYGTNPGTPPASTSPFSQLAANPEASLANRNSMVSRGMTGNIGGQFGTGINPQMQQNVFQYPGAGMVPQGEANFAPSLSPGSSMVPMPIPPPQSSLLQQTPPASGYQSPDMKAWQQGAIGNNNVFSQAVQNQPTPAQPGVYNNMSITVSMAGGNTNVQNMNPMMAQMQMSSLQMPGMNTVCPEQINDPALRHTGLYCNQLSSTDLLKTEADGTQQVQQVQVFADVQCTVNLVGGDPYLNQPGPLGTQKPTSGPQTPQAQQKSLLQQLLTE

[5] = system: CYP3A4 and MDR1 expression; assay: CYP3A4 and MDR1 expression in human primary hepatocytes; assay type: cell-based; conditions: 48-h treatment, two donors
[6] = system: CYP3A4 and MDR1 expression; assay: CYP3A4 and MDR1 expression in LS180 and LS174T intestine cells; assay type: cell-based, human; conditions: Western blot
[7] = target: T2, hPXR ligand-binding domain (Homo sapiens, UniProt O75469); assay: LanthaScreen TR-FRET PXR competitive ligand-binding assay; conditions: 1.75 μM, compared with vehicle control
T2 sequence (O75469 146-433 limits assumed): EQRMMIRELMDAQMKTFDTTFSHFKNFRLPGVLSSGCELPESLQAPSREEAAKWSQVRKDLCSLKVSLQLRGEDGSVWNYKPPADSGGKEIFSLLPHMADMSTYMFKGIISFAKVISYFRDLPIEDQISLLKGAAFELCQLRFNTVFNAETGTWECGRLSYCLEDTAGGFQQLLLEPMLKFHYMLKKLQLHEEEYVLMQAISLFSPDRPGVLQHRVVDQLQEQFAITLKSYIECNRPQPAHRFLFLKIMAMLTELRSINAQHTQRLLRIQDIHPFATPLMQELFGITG

[8] = target: T3, wild-type hPXR (CYP3A4 promoter) (Homo sapiens, UniProt O75469); assay: CYP3A4 promoter luciferase reporter assay in HepG2 cells, wild-type hPXR; assay type: cell-based; conditions: human
T3 sequence (O75469 1-434): T1 sequence (O75469 1-434)

[9] = target: T4, wild-type hPXR (Homo sapiens, UniProt O75469); assay: as above; assay type: cell-based; conditions: HepG2, 24 h, relative luciferase units (a.u.), DMSO 0.40
T4 sequence (O75469 1-434): T1 sequence (O75469 1-434)

[10] = target: T5, hPXR R410A (Homo sapiens, UniProt O75469, R410A); assay: CYP3A4 promoter luciferase reporter assay in HepG2 cells, hPXR mutant R410A; assay type: cell-based; conditions: HepG2, 24 h, relative luciferase units (a.u.), DMSO 3.28
T5 sequence (O75469 1-434 R410A): T1 sequence (O75469 1-434) with R410A

[11] = target: T6, hPXR R410A mutant (CYP3A4 promoter) (Homo sapiens, UniProt O75469, R410A); assay: as above; assay type: cell-based; conditions: human
T6 sequence (O75469 1-434 R410A): T1 sequence (O75469 1-434) with R410A

[12] = system: hPXR mutants; assay type: cell-based, human; conditions: 21 alanine mutants, various MET concentrations, HepG2
[13] = system: human carbonic anhydrase isoforms I and III; conditions: ref [31]; cited from earlier work
[14] = system: human carbonic anhydrase isoforms VII, XII, and XIII; conditions: ref [31]; cited from earlier work

activation of PXR-regulated CYP3A4 promoter activity [2]: inactive
Structure (SMILES): NS(=O)(=O)c1cc2c(cc1Cl)NCNS2(=O)=O [hydrochlorothiazide]

activation of PXR-regulated CYP3A4 promoter activity [2]: inactive
Structure (SMILES): NS(=O)(=O)c1cc2c(cc1Cl)N=C(CSCc1ccccc1)NS2(=O)=O [benzthiazide]

activation of PXR-regulated CYP3A4 promoter activity [2]: does not activate PXR
Structure (SMILES): NS(=O)(=O)c1cc2c(cc1Cl)NC(C1CC3C=CC1C3)NS2(=O)=O (centres unmarked) [cyclothiazide]

Second part, the molecule before the results:

Structure (SMILES): CCCCC1C(=O)N(c2ccccc2)N(c2ccccc2)C1=O [phenylbutazone]
PXR activation in the screen [1]: PXR activation

Structure (SMILES): CC(C)(O)c1ccccc1CC[C@@H](SCC1(CC(=O)O)CC1)c1cccc(/C=C/c2ccc3ccc(Cl)cc3n2)c1 [montelukast]
PXR activation in the screen [1]: PXR activation

Structure (SMILES): O=C1Nc2ccc(Cl)cc2[C@@](C#CC2CC2)(C(F)(F)F)O1 [efavirenz]
PXR activation in the screen [1]: PXR activation

Structure (SMILES): Cc1ccccc1N1C(=O)c2cc(S(N)(=O)=O)c(Cl)cc2NC1C (centres unmarked) [Metolazone]
cytotoxicity [3]: not significantly cytotoxic even at high concentration
interaction between hPXR and SRC-1 [4]: substantially increased the interaction between hPXR and SRC-1
expression of CYP3A4 and MDR1 mRNA and protein [5]: induced the expression of CYP3A4 and MDR1 mRNA and protein
CYP3A4 and MDR1 protein expression [6]: induced CYP3A4 and MDR1 protein expression
tracer binding to hPXR-LBD [7]: decreased tracer binding to hPXR-LBD substantially
fold induction at 24 h, 10 μM [8]: 9.83
fold induction at 24 h, 20 μM [8]: 10.6
CYP3A4 promoter activity ([9]; 10 μM MET): 3.93
CYP3A4 promoter activity ([9]; 20 μM MET): 4.22
CYP3A4 promoter activity ([10]; 10 μM MET): 6.43
CYP3A4 promoter activity ([10]; 20 μM MET): 4.92
fold induction at 24 h, 10 μM [11]: 1.96
fold induction at 24 h, 20 μM [11]: 1.5
CYP3A4 promoter activity with hPXR mutants [12]: increased CYP3A4 promoter activity substantially for all PXR mutants except L240A, F281A, and F420A
activation of the CYP3A4-luc reporter ([1]; final compound concentration 28 μM, DMSO set as 0% and rifampicin at 5 μM set as 100%): 182%
inhibition of carbonic anhydrase [13]: weak inhibitor
inhibition of carbonic anhydrase [14]: very potent
activation of PXR-regulated CYP3A4 promoter activity [2]: activator of PXR activity

Structure (SMILES): NS(=O)(=O)c1cc2c(cc1C(F)(F)F)NC(Cc1ccccc1)NS2(=O)=O (centres unmarked) [bendroflumethiazide]
activation of PXR-regulated CYP3A4 promoter activity [2]: inactive

Structure (SMILES): Cc1cccc(C)c1NC(=O)c1cc(S(N)(=O)=O)c(Cl)cc1O [xipamide]
activation of PXR-regulated CYP3A4 promoter activity [2]: does not possess PXR-activating activity
